“Also recorded” adds a separate entry of the source.
Experiments:
YMDD motif of HIV-1 RT = assay: In vitro site directed mutagenesis of HIV-1 reverse transcriptase gene, transformation into E. coli and sequencing; format: cell-based; settings: sequencing of mutants; for amino acid change: YMDD motif
From the text: Example 6 describes the in vivo mutation of the RT gene within the YMDD motif, incorporated into a proper vector in E. coli cells. The mutagenic oligonucleotide DNA target region is the conserved YMDD motif (nucleotides 5′ 2678 to 3′ 2689) of HIV-1 RT. The mutagenic oligonucleotides used were
The procedure for in vitro site directed mutagenesis used in this experiment was a modification of that used in the Altered Sites mutagenesis Kit #Q6210 (Promega Corp., Madison, Wis.). Briefly, oligonucleotides, 5′-AATACATGGA(CDU)GATTTGTAT-3′ (SEQ ID NO:1) and 5′-AATACATGG(CDU)(CDU)GATTTGTAT-3′ (SEQ ID NO:2), and a control, located on the putative catalytic active site for HIV-1 RT (5′-2676 to 3′-2696) were 5′ phosphorylated using T4 polynucleotide kinase. The reaction was terminated by heating to 70° C. for 10 min. The mutagenesis annealing reaction was performed by adding 0.05 pmol of pHIVALT-1 ssDNA, 0.25 pmol ampicillin repair oligonucleotide (supplied in the kit), 1.25 pmol of the 5′ phosphorylated mutagenic oligo, and an annealing buffer supplied in the kit in a final volume of 20 μL. The control oligonucleotide reactions for this experiment were done separately along with an added reaction that contained ampicillin repair oligo but no mutagenic oligo 5′-AATACATGGA(CDU)GATTTGTAT-3′ (SEQ ID NO: 1) and 5′-AATACATGG(CDU)(CDU) GATTTGTAT-3′ (SEQ ID NO:2) and control unmodified. The reactions were then heated to 70° C. for 5 min and allowed to cool to room temperature over a 15-20 min period. The annealing reactions were placed on ice and the following reagents were added: 3 μL 10× synthesis buffer (supplied in kit), 1 μL T4 DNA polymerase (10 U/μL ), 1 μL T4 DNA ligase (2 U/μL ), and 5 μL sterile dHO. The 30 μL reaction was incubated at 37° C. for 90 min to perform second strand synthesis and ligation. […]

[1] = system: Phosphodiesterase I (EC 3.1.4.1) type VIII from Crotalus durissus terrificus venom; assay: Stability towards snake venom phosphodiesterase (SVPD) 3′-exonuclease, HPLC; format: in vitro ADME; settings: for % remaining: SVPDE; for T½: degradation by SVPDE, disappearance of 12-mer (11-mer for CDU-modified oligos)
Experimental: Resistance of dodeca (thymidine phosphates) containing CDU (19-24) against phosphodiesterase I (EC 3.1.4.1): To 100 mM Tris-HCl buffer, pH 8.9 (90 μL) containing 20 mM MgCl2, 0.1 A260 ODU of oligonucleotide 19-24 (5 μL), 1.5×10-3 unit (5 μL) of phosphodiesterase was added. A blank with no enzyme, and a control reaction with d(T)12 were assayed simultaneously. Reactions were maintained at 37° C. for 10 minutes and then 50 μL aliquots were analyzed by HPLC under conditions described above.
The replacement of all natural phosphodiester linkages within oligonucleotide chain by methylphosphonate ones is an example of modifications that ensure complete stability of the oligonucleotide towards exo- and endonucleases. To test the resistance of CDU-oligonucleotides towards 3′-exonucleolytic activity (hydrolysis of the oligonucleotide from 3′-end), snake venom phosphodiesterase (SVPD) from Crotalus durissus terrificus was used. It was discovered that these oligonucleotides are remarkably stable to 3′-exonucleases if the CDU residue is incorporated in the 3′- or both 3′- and 5′-end. The oligonucleotide bearing both 3′- and 5′-modifications (24) was also resistant to SVPD and calf spleen phosphodiesterase.
The half-life (T½) of 3′-CDU-, 3′,5′-CDU- and 3′CDU2-oligonucleotides were determined by kinetic study of their degradation by SVPDE (snake venom phosphodiesterase). Aliquots of enzymatic reaction (0, 5, 10, 20, 40, 80 and 240 minutes) were analyzed by HPLC. Calculations of half life time were based on the disappearance of 12-mer (or 11-mer in the case of CDU-modified oligos) after standardization with 2′-deoxycytidine used as internal standard.

d(A)12 = assay: Melting temperature (Tm) of duplexes with d(A)12; format: binding; settings: for Tm: d(A)12 as complementary strand, 1:1, PIPES buffer at 120 mM NaCl
Experimental: Melting Temperature (Tm) Measurements. Samples for Tm measurements were prepared by the addition of concentrated stock solutions of the d(T)12 (18) or CDU modified d(T)12 (19-24) and d(A)12stock solution to 1.0 mL 10 mM 1,4-piperazine-bis-(ethane-sulfonic acid) (PIPES) buffer (pH 7.0) containing 100 mM NaCl, and 1 mM EDTA, in amounts to give a 1:1 ratio. Each strand was present at 40 μM. Molar extinction coefficients ε260 (per base) were calculated as following: 18: 8,150; d(A)12: 12,280; 19-24: 8,200. The samples were heated to 85° C. and cooled slowly to room temperature before melting. The insulated cell compartment of the UV spectrophotometer was continuously warmed from 0° C. to 85° C. at the rate 0.5° C. per minute. Samples were heated in quartz cuvettes fitted with a teflon stopper (1 cm path length). The absorption change at 260 nm was followed as a function of temperature, and Tm values were obtained from first derivative plots after the data were transferred to a Macintosh computer for visualization and analysis.

[2] = system: calf spleen phosphodiesterase; assay: Resistance to calf spleen phosphodiesterase; format: in vitro ADME; settings: in words
polyriboadenylic acid = assay: Melting temperature (Tm) of duplexes with polyriboadenylic acid; format: binding; settings: polyriboadenylic acid as target; PIPES buffer at 120 mM NaCl

Substance	% remaining ([1]; time 0 min)	% remaining ([1]; time 5 min)	% remaining ([1]; time 10 min)	% remaining ([1]; time 40 min)	T½ [1]	Tm (d(A)12)	Tm (polyriboadenylic acid)	other results
5′-AATACATGG(CDU)(CDU)GATTTGTAT-3′ [RL-2]								amino acid change (YMDD motif of HIV-1 RT): YMDD to YRVD
5′-AATACATGGA(CDU)GATTTGTAT-3′ [RL-1]								clones in which the mutation occurred next to the base opposite to CDU on the complimentary strand (YMDD motif of HIV-1 RT): 60%; amino acid change (YMDD motif of HIV-1 RT): YMDD to YMVD; also recorded: YMDD to YMGD
5′CDUd(T)9CDUd(T) [Oligomer 24]	100%	56.2%	38.1%	14.8%	5.06 min	20.0 °C	17.0 °C	resistance towards 3′-exonucleolytic activity (SVPD) ([1]; in words): resistant; resistance to calf spleen phosphodiesterase [2]: resistant
5′CDUd(T)11 [Oligomer 19]								Tm (d(A)12; listed as 19): 28.0 °C; Tm (d(A)12; listed as CDU(dT)11): 28.8 °C
5′d(T)6CDUd(T)5 [Oligomer 21]						15.2 °C		
5′d(T)9(CDU)2d(T) [Oligomer 23]	100%	82.0%		78.9%	76.2 min	15.3 °C	10.0 °C	% remaining ([1]; time 20 min): 80.0%; % remaining ([1]; time 80 min): 54.0%; % remaining ([1]; time 240 min): 10.5%
5′d(T)10CDUd(T) [Oligomer 22]	100%	54.8%	44.0%	23.2%	6.7 min	20.5 °C		% remaining ([1]; time 20 min): 38.3%; % remaining ([1]; time 80 min): 11.0%; difference in Tm (d(A)12; between oligonucleotides 20 and 22): 7-8 °C
5′d(T)CDUd(T)10 [Oligomer 20]						27.2 °C	25.7 °C	
d(T)12 [Oligomer 18, reference compound]	100%	9.1%	2.6%		0.5 min	29.0 °C	30.0 °C	

— patent publication US6583122B2, “Nucleosides and oligonucleotides containing boron clusters” (Emory University, priority 1993, dated 2003)
